Data on two molecules can be found in PMC3940921 (Oncogenesis, 2014).

The test system of one experiment is CML CD34+38- cells. Nature of the experiment: Viability of CML CD34+38- cells. The format is cell-based, human. The following applies: 50 nM for 1 h, then drug-free medium 24 h.
The subject of a further experiment is NBM CD34+38- cells. Nature of the experiment: Viability of normal bone marrow CD34+38- cells. The class given is cell-based, human. The following applies: 50 nM for 1 h, then drug-free medium 24 h.
For a further experiment, the system named is normal CD34+ cells (NBM). Put plainly: LTC-IC assay, normal CD34+ cells. The class given is cell-based, human. The following applies: pulsed 1 h with 50 nM.
Experiment [1] concerns caspase-3 activity in CML cell lines and primary samples. Put plainly: Caspase-3 activity. The format is cell-based. To be noted: pulse treatment 1 h at IC50 doses.
The next experiment relates to CML cell lines. Put plainly: Cell viability of CML cell lines. The class given is cell-based. The following applies: read-out: IC50, viability.
The next experiment deals with LAMA84S cells. Put plainly: Proliferation of LAMA84S cells with or without LMP7 siRNA. The class given is cell-based. The following applies: Homo sapiens, 24 h, read-out: IC50, proliferation, control LAMA84S, continuous exposure for 24 h.
For experiment [2], the system named is A549 lung carcinoma cell line. Put plainly: Proliferation of A549 cells with or without IFN-γ. The format is cell-based. The following applies: Homo sapiens.
Another experiment concerns ABI 1/2. Nature of the experiment: Western blot of ABI 1/2 levels after carfilzomib. The class given is cell-based. The following applies: carfilzomib at IC50 levels; cell lines and primary CD34+38- enriched cells.
The next experiment concerns CML CD34+ cells. Put plainly: LTC-IC assay, CML CD34+ cells. To be noted: pulsed 1 h with 50 nM. The class given is cell-based, human.
In the next experiment the test system is KCL22S cells. Nature of the experiment: Proliferation of KCL22S cells with or without LMP7 siRNA. The format is cell-based. To be noted: Homo sapiens, 24 h, read-out: IC50, proliferation, control KCL22S, continuous exposure for 24 h.
The test system of experiment [3] is STAT5 or PI3K signaling pathways. Nature of the experiment: Western blot of STAT5 and PI3K signaling after carfilzomib. The format is cell-based. The following applies: carfilzomib at IC50 doses, 1 h pulse, fresh medium 24 h.
A further experiment deals with K562 cells. Put plainly: Proliferation of K562 cells with or without IFN-γ. The class given is cell-based. The following applies: Homo sapiens.
The test system of experiment [4] is LMP7 expression in K562 cells. Put plainly: Induction of LMP7 expression by IFN-γ in K562 cells. To be noted: 100 U/ml IFN-γ for 72 h. The format is cell-based.
Experiment [5] has as its system LMP7 expression in A549 cells. Put plainly: Induction of LMP7 expression by IFN-γ in A549 cells. The format is cell-based. To be noted: 100 U/ml IFN-γ for 72 h.

Read-outs that look alike come from different tables or passages of the source.

Take `CC(C)C[C@H](NC(=O)[C@H](CCc1ccccc1)NC(=O)CN1CCOCC1)C(=O)N[C@@H](Cc1ccccc1)C(=O)N[C@@H](CC(C)C)C(=O)[C@@]1(C)CO1` [carfilzomib]: the results for the “viability reduced by” value with CML CD34+38- cells and with NBM CD34+38- cells were 39±1% and 19±2%, respectively. Moreover, the figures for the “colony formation reduced by” value in the experiment on normal CD34+ cells (NBM) and in the experiment with CML CD34+ cells were 44±7% and 58±11%, respectively. Besides, in experiment [1], the caspase-3 activity entry was “increase in caspase-3 activity”. For the same molecule, the IC50 was 20 to 79 nM in the experiment with CML cell lines; 7 nM in the experiment on LAMA84S cells; 92 nM in [2] (A549, 24 h, read-out: IC50, proliferation); 10 nM in [2] (A549, read-out: IC50, proliferation); 5 nM with KCL22S cells; 608 nM with K562 cells (K562, 24 h, read-out: IC50, proliferation). Also, the IC50 in the experiment with K562 cells (K562, read-out: IC50, proliferation) worked out at 179 nM. Further, the “increased expression of ABI 1/2” value in the experiment with ABI 1/2 is on record as 2.2–6.8 fold. The “effect on STAT5 or PI3K signaling pathways” value in experiment [3] is on record as “no effect”.

B1: IFN-γ: interferon-γ, used at 100 U/ml for 72 h to induce immunoproteasome expression (protein, UniProt P01579 24-161, looked up)
Interferon gamma: QDPYVKEAENLKKYFNAGHSDVADNGTLFLGILKNWKEESDRKIMQSQIVSFYFKLFKNFKDDQSIQKSVETIKEDMNVKFFNSNKKKRDDFEKLTNYSVTDLNVQRKAIHELIQVMAELSPAAKTGKRKRSQMLFRG
Take B1: the “increase in the expression of LMP7” value in [4] was “fourfold”; in experiment [5], 10 fold.
